Measurements published in PubChem BioAssay (NCI).
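A five-concentration, 48-hour dose response in 96-well plates underlies each endpoint, interpolated linearly between surrounding concentrations. Abbreviation: GI50, concentration required for 50% inhibition of growth. TGI marks complete inhibition of growth.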

What was measured:
Experiment in all cases: NCI-60 cell line screen, 48 h
[1] = tested on: ACHN renal
[2] = tested on: SF-268 CNS
[3] = tested on: OVCAR-5 ovarian
[4] = tested on: CCRF-CEM leukemia
[5] = tested on: HCT-15 colon
[6] = tested on: SK-OV-3 ovarian
[7] = tested on: 786-0 renal
[8] = tested on: EKVX NSCLC
[9] = tested on: HCC-2998 colon
[10] = tested on: LOX IMVI melanoma
[11] = tested on: M14 melanoma
[12] = tested on: COLO 205 colon
[13] = tested on: MDA-MB-435
[14] = tested on: SW-620 colon
[15] = tested on: A498 renal
[16] = tested on: SF-295 CNS
[17] = tested on: SK-MEL-5 melanoma
[18] = tested on: NCI-H522 lung
[19] = tested on: NCI-H23 lung
[20] = tested on: K-562 leukemia
[21] = tested on: DU-145 prostate
[22] = tested on: HOP-62 NSCLC
[23] = tested on: HS 578T breast
[24] = tested on: IGROV1 ovarian
[25] = tested on: NCI-H460 lung
[26] = tested on: TK-10 renal
[27] = tested on: RXF 393 renal
[28] = tested on: SN12C renal
[29] = tested on: HT29 colon
[30] = tested on: CAKI-1 renal
[31] = tested on: HCT-116 colon
[32] = tested on: U251 CNS
[33] = tested on: OVCAR-3 ovarian
[34] = tested on: MCF7 breast
[35] = tested on: UO-31 renal
[36] = tested on: HOP-92 NSCLC
[37] = tested on: A549 NSCLC
[38] = tested on: BT-549 breast
[39] = tested on: NCI-H226 lung
[40] = tested on: OVCAR-4 ovarian
[41] = tested on: MDA-MB-231 breast
[42] = tested on: UACC-62 melanoma
[43] = tested on: SK-MEL-28 melanoma
[44] = tested on: NCI/ADR-RES ovarian
[45] = tested on: SK-MEL-2 melanoma
[46] = tested on: SNB-75 CNS
[47] = tested on: SNB-19 CNS
[48] = tested on: PC-3 prostate
[49] = tested on: KM12 colon
[50] = tested on: UACC-257 melanoma
[51] = tested on: T-47D breast
[52] = tested on: MOLT-4 leukemia
[53] = tested on: OVCAR-8 ovarian
[54] = tested on: RPMI-8226 leukemia
[55] = tested on: SF-539 CNS
[56] = tested on: SR leukemia
[57] = tested on: HL-60(TB) leukemia
[58] = tested on: MALME-3M melanoma

O=C1c2ccccc2-c2c1c1ccccc1c(=O)n2CCCNCCCNCCCn1c2c(c3ccccc3c1=O)C(=O)c1ccccc1-2
GI50 [1]: < 10 nM | TGI [1]: 388 nM | GI50 [2]: 231 nM | TGI [2]: 4130 nM | GI50 [3]: 76.3 nM | TGI [3]: 731 nM | GI50 [4]: < 10 nM | TGI [4]: 175 nM | GI50 [5]: 60.5 nM | TGI [5]: 196 nM | GI50 [6]: 1900 nM | TGI [6]: 6040 nM | GI50 [7]: < 36.2 nM | TGI [7]: 172 nM | GI50 [8]: 250 nM | TGI [8]: 595 nM | GI50 [9]: < 16.2 nM | TGI [9]: 167 nM | GI50 [10]: 21.5 nM | TGI [10]: 175 nM | GI50 [11]: 333 nM | TGI [11]: 1290 nM | GI50 [12]: 572 nM | TGI [12]: 8100 nM | GI50 [13]: 338 nM | TGI [13]: 2260 nM | GI50 [14]: < 10 nM | TGI [14]: 150 nM | GI50 [15]: 1250 nM | TGI [15]: 2610 nM | GI50 [16]: 15.1 nM | TGI [16]: 1260 nM | GI50 [17]: 120 nM | TGI [17]: 1220 nM | GI50 [18]: < 10 nM | TGI [18]: 55.4 nM | GI50 [19]: 38.3 nM | TGI [19]: 1640 nM | GI50 [20]: 22.5 nM | TGI [20]: 1220 nM | GI50 [21]: 29.5 nM | TGI [21]: 181 nM | GI50 [22]: < 10 nM | GI50 [23]: 98.4 nM | TGI [23]: 1280 nM | GI50 [24]: < 10 nM | TGI [24]: < 41.6 nM | GI50 [25]: < 16.9 nM | TGI [25]: 266 nM | TGI [26]: 732 nM | GI50 [27]: 56.9 nM | TGI [27]: 1110 nM | GI50 [28]: < 10 nM | TGI [28]: < 30.3 nM | GI50 [29]: < 10 nM | TGI [29]: 135 nM | GI50 [30]: 342 nM | TGI [30]: 1700 nM | GI50 [31]: < 10 nM | TGI [31]: 476 nM | GI50 [32]: < 10 nM | TGI [32]: 122 nM | GI50 [33]: 81.8 nM | TGI [33]: 232 nM | GI50 [34]: 38.2 nM | TGI [34]: 180 nM | GI50 [35]: 87.8 nM | TGI [35]: 215 nM | GI50 [36]: 587 nM | TGI [36]: 2180 nM | GI50 [37]: 17.4 nM | TGI [37]: 183 nM | GI50 [38]: 665 nM | TGI [38]: 2080 nM | GI50 [39]: < 14 nM | TGI [39]: 903 nM | GI50 [40]: 188 nM | TGI [40]: 1020 nM | GI50 [41]: < 10 nM | TGI [41]: 112 nM | GI50 [42]: 43.4 nM | TGI [42]: 346 nM | GI50 [43]: 1170 nM | TGI [43]: 2830 nM | GI50 [44]: 319 nM | TGI [44]: 1980 nM | GI50 [45]: 15000 nM | TGI [45]: 28200 nM | GI50 [46]: 1130 nM | TGI [46]: 3050 nM | GI50 [47]: 681 nM | TGI [47]: 4100 nM | GI50 [48]: 39.7 nM | TGI [48]: 142 nM | GI50 [49]: 28 nM | TGI [49]: 219 nM | GI50 [50]: 811 nM | TGI [50]: 2250 nM | GI50 [51]: 1640 nM | TGI [51]: 6400 nM | GI50 [52]: < 10 nM | GI50 [53]: < 10 nM | TGI [53]: 201 nM

O=C1OC(=O)C(c2c[nH]c3ccccc23)=C1c1c[nH]c2ccccc12
GI50 [1]: > 25000 nM | TGI [1]: > 25000 nM | GI50 [2]: > 25000 nM | TGI [2]: > 25000 nM | GI50 [54]: > 25000 nM | TGI [54]: > 25000 nM | GI50 [3]: > 25000 nM | TGI [3]: > 25000 nM | GI50 [4]: > 25000 nM | TGI [4]: > 25000 nM | GI50 [5]: > 25000 nM | TGI [5]: > 25000 nM | GI50 [6]: > 25000 nM | TGI [6]: > 25000 nM | GI50 [7]: > 25000 nM | TGI [7]: > 25000 nM | GI50 [9]: > 25000 nM | TGI [9]: > 25000 nM | GI50 [10]: > 25000 nM | TGI [10]: > 25000 nM | GI50 [11]: > 25000 nM | TGI [11]: > 25000 nM | GI50 [12]: > 25000 nM | TGI [12]: > 25000 nM | GI50 [13]: > 25000 nM | TGI [13]: > 25000 nM | GI50 [14]: > 25000 nM | TGI [14]: > 25000 nM | GI50 [15]: > 25000 nM | TGI [15]: > 25000 nM | GI50 [16]: > 25000 nM | TGI [16]: > 25000 nM | GI50 [17]: > 25000 nM | TGI [17]: > 25000 nM | GI50 [18]: > 25000 nM | TGI [18]: > 25000 nM | GI50 [19]: > 25000 nM | TGI [19]: > 25000 nM | GI50 [20]: > 25000 nM | TGI [20]: > 25000 nM | GI50 [55]: > 25000 nM | TGI [55]: > 25000 nM | GI50 [21]: > 25000 nM | TGI [21]: > 25000 nM | GI50 [22]: > 25000 nM | TGI [22]: > 25000 nM | GI50 [23]: > 25000 nM | TGI [23]: > 25000 nM | GI50 [24]: > 25000 nM | TGI [24]: > 25000 nM | GI50 [25]: > 25000 nM | TGI [25]: > 25000 nM | GI50 [26]: > 25000 nM | TGI [26]: > 25000 nM | GI50 [27]: > 25000 nM | TGI [27]: > 25000 nM | GI50 [28]: > 25000 nM | TGI [28]: > 25000 nM | GI50 [29]: > 25000 nM | TGI [29]: > 25000 nM | GI50 [30]: > 25000 nM | TGI [30]: > 25000 nM | GI50 [31]: > 25000 nM | TGI [31]: > 25000 nM | GI50 [56]: > 25000 nM | TGI [56]: > 25000 nM | GI50 [32]: > 25000 nM | TGI [32]: > 25000 nM | GI50 [57]: > 25000 nM | TGI [57]: > 25000 nM | GI50 [33]: > 25000 nM | TGI [33]: > 25000 nM | GI50 [34]: > 25000 nM | TGI [34]: > 25000 nM | GI50 [35]: 8730 nM | TGI [35]: > 25000 nM | GI50 [37]: > 25000 nM | TGI [37]: > 25000 nM | GI50 [38]: > 25000 nM | TGI [38]: > 25000 nM | GI50 [39]: > 25000 nM | TGI [39]: > 25000 nM | GI50 [40]: > 25000 nM | TGI [40]: > 25000 nM | GI50 [41]: 14500 nM | TGI [41]: > 25000 nM | GI50 [42]: > 25000 nM | TGI [42]: > 25000 nM | GI50 [43]: > 25000 nM | TGI [43]: > 25000 nM | GI50 [44]: > 25000 nM | TGI [44]: > 25000 nM | GI50 [45]: > 25000 nM | TGI [45]: > 25000 nM | GI50 [46]: > 25000 nM | TGI [46]: > 25000 nM | GI50 [58]: > 25000 nM | TGI [58]: > 25000 nM | GI50 [47]: > 25000 nM | TGI [47]: > 25000 nM | GI50 [48]: > 18000 nM | TGI [48]: > 25000 nM | GI50 [49]: > 25000 nM | TGI [49]: > 25000 nM | GI50 [50]: > 25000 nM | TGI [50]: > 25000 nM | GI50 [51]: > 25000 nM | TGI [51]: > 25000 nM | GI50 [52]: > 25000 nM | TGI [52]: > 25000 nM | GI50 [53]: > 25000 nM | TGI [53]: > 25000 nM
